In US5006515A, “Pharmaceuticals, phosphorus-containing 2-isoxazolines and isoxazoles contained therein” (Hoechst Aktiengesellschaft, priority 1987, dated 1991):
pIC50: −log10 of the molar value. Blank lines part the entries; values can stand above or below the molecule they belong to.

What was measured:
[1] = test system: DTH reaction to sheep erythrocytes; experiment: Delayed-type hypersensitivity (DTH) reaction to sheep erythrocytes; assay type: in vivo, female NMRI mice; details: single i.p. dose of 40 mg/kg, maximal stimulation by Example 34 = 100%
Experimental: Groups each comprising 5 female NMRI mice with a body weight of 18 to 20 g were formed, and each animal was given 10^6 or 10^9 sheep red blood cells intravenously. Sheep erythrocytes are regarded in immunology as a standard antigen with which it is possible to check cellular and humoral immunoreactivity, especially the functioning of the T-cell-dependent component of the immune system, the so-called T-helper cells. The test substances were administered, in intraperitoneal doses of 5 to 100 mg/kg in physiological saline, at the same time as the antigen. After 5 days, each animal was given an injection of 2×10^8 sheep erythrocytes into the footpad. 24 hours later, the swelling of the foot was measured. The foot swelling is induced by a skin reaction of the delayed type (DTH reaction) and, as is known to those skilled in the art, is a measure of the cellular immune response (J. Immunol. 101 (1968), 830-845). The test results obtained with the product of Example 34, by way of example, are compiled in Table 7 and illustrate that the compounds of the formula I--administered prophylactically--are able to increase the cellular immune response after immunization with the antigen by stimulation of the T-cell system, with the stimulant action reaching its optimum in this experiment at a dose of 25 mg/kg.

leucine aminopeptidase = experiment: Inhibition of leucine aminopeptidase; assay type: biochemical; details: substrate L-leucine 4-nitroanilide
Experimental: (§1) The activity of the enzyme aminopeptidase B was determined photometrically using the substrate L-lysine 2-naphthylamide at room temperature. […] In the same way, the inhibition of leucine aminopeptidase was investigated using L-leucine 4-nitroanilide as enzyme substrate. The IC50 values are compiled in Table 6.

active Arthus reaction = experiment: Active Arthus reaction in the rat; assay type: in vivo, Sprague-Dawley rats; details: 4 h after ovalbumin challenge; for Active Arthus reaction % change / change in vivo at 50 mg/kg: oral dose 50 mg/kg
Experimental: The experimental animals used were female and male Sprague-Dawley rats with a body weight between 80 and 100 g which received subcutaneous injections into the tail-head of 0.5 ml of an emulsion of pertussis vaccine and ovalbumin in liquid paraffin. After two weeks, the rats were divided into groups each of 8 animals. 24 hours and 1 hour before induction of the Arthus reaction by injection of 0.1 ml of a 0.4% strength ovalbumin solution into the right hind paw, the particular test substance or the pure vehicle (positive control) was administered orally, sodium chloride solution was injected into the left paw. One group of unsensitized animals (negative control group) was likewise treated with ovalbumin in order to be able to rule out nonspecific reactions to the protein. The parameter used for measuring the action of the product was the percentage change in the increase in paw volume compared with that in the control group which was sensitized but untreated (positive control) 4 hours after ovalbumin challenge, when the swelling had reached its maximum.

cGvH reaction = experiment: Chronic graft-versus-host (cGvH) reaction in the mouse; assay type: in vivo, female mice of (DBA/2×C57Bl/6)F1 generation; details: 6 weeks
From the text: Graft-versus-host disease, which derives from an immune reaction originating from the transplant and directed against the host tissue, is characterized, in the acute form which almost always has a fatal outcome, by enlargement of the spleen, swelling of the liver, hypertrophy of the lymph nodes, hemolytic anemia, lowered immunoglobulin and complement levels and diminished immunoreactivity. The chronic form of the disease, which has a somewhat milder course, leads to lymphadenopathy, immune complex glomerulonephritis and excessive formation of non-organ-specific autoantibodies. A syndrome with similar features is systemic lupus erythematosus (SLE) which is likewise one of the autoimmune diseases.
The investigation of the compounds used according to the invention for the progress of the cGvH reaction induced in female mice of (DBA/2×C57Bl/6)F1 generation by two injections of spleen and thymus cells mixed together are carried out in the experimental system described by S. Popovic and R. R. Bartlett (Agents and Actions 21 (1987), 284-286), with 5×10^7 DBA/2 cells, likewise obtained from female donor animals, being administered intravenously in 0.2 ml of culture medium each time at a time interval of 7 days. For a reliable assessment of the outbreak and course of the disease, a group of healthy animals was included as negative control in all experiments. The 6-week oral treatment of the animals with the disease started on day 21 after the first donor cell injection, with the test substances or the pure vehicle (positive control) being administered once a day. The vehicle used was an aqueous CMC (carboxymethylcellulose sodium salt) solution containing 100 mg of CMC per 1. The volume administered was 10 ml per kg body weight. The individual experimental groups each comprised 10 animals.
The action of the products was assessed on the basis of the inhibition of proteinuria and the cGvH index. As a consequence of the destruction of nephrons by deposition of immune complexes on the basement membranes of the glomeruli, the animals with the disease developed pronounced proteinuria, which correlates with the extent of glomerulonephritis and can easily be quantified via the increase in the amount of protein excreted with the urine. The second parameter measured, the cGvH index, relates to the great enlargement of the spleen (splenomegaly) caused by the cGvH reaction. It is defined as the quotient of the product of the spleen and body weights of the animals with the disease and of the product of the corresponding weights of healthy untreated animals on the negative control group, and is a reliable measure of the intensity of the disease (the greater this index, the more severe the disease).

Acute toxicity = experiment: Acute toxicity; design: species or system mice; details: mouse, in vivo, single dose, mortality within 7 days
Experimental: The LD50 values were determined by the standard method via the mortality occurring within 7 days in NMRI (Naval Medical Research Institute) mice (6 animals per dose) after a single intraperitoneal (i.p.) or intravenous (i.v.) dose.

aminopeptidase B = aminopeptidase B (Homo sapiens, UniProt Q9H4A4); experiment: Inhibition of aminopeptidase B; assay type: biochemical
Chain of aminopeptidase B (Q9H4A4 whole entry, species assumed): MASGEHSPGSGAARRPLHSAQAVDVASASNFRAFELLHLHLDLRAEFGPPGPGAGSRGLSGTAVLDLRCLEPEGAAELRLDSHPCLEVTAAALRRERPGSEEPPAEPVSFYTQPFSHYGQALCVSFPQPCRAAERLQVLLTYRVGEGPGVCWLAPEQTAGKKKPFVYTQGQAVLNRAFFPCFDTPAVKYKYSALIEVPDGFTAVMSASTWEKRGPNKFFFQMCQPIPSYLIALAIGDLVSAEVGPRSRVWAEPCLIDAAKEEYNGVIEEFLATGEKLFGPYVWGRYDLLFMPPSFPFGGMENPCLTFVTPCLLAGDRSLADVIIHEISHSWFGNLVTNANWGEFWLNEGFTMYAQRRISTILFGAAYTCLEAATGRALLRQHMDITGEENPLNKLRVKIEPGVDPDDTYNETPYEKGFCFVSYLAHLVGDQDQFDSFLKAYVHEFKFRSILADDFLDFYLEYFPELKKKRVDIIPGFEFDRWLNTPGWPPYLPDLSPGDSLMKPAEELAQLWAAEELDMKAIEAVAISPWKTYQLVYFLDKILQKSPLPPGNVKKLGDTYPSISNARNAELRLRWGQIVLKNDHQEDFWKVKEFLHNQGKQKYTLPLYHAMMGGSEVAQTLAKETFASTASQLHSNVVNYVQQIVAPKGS
Experimental: as §1

peritoneal macrophages [2] = experiment: Stimulation of the release of lysosomal enzymes from peritoneal macrophages (exocytosis); details: single i.p. dose of 40 mg/kg; maximum activation by Example 34 = 100%; 40 mg/kg
peritoneal macrophages [3] = experiment: Activation of peritoneal macrophages: chemiluminescence (oxidative metabolism); details: single i.p. dose of 40 mg/kg; maximum activation by Example 34 = 100%; 40 mg/kg

SMILES: O=P(O)(O)C1CC(c2ccccc2)=NO1 (centres unmarked) [Example 36]
Relative stimulation of the DTH reaction ([1]; 40 mg/kg): 102%
Leucine aminopeptidase IC50 (leucine aminopeptidase): 56 μug/ml

SMILES: O=P(O)(O)C1CC(c2ccccc2)=NO1 (single isomer, unassigned; (-)) [Example 62, (-)-3-Phenyl-2-isoxazolin-5-ylphosphonic acid]
Active Arthus reaction % change (active Arthus reaction): +16%
Relative stimulation of the DTH reaction ([1]; 40 mg/kg): 83%
Leucine aminopeptidase IC50 (leucine aminopeptidase): 130 μug/ml

SMILES: COc1ccc(-c2cc(P(=O)(O)O)on2)cc1 [Example 54]
change in vivo at 40 mg/kg (active Arthus reaction; Rattus norvegicus, po, 4 h, oral dose 40 mg/kg): -57%
% inhibition Proteinuria (cGvH reaction; oral dose 15 mg/kg/day): 27%
% inhibition cGvH index (cGvH reaction; oral dose 15 mg/kg/day): 16%
% inhibition Proteinuria (cGvH reaction; oral dose 50 mg/kg/day): 64%
% inhibition cGvH index (cGvH reaction; oral dose 50 mg/kg/day): 18%
LD50 at 168 h (Acute toxicity; iv): > 200 mg/kg

SMILES: COP(C)(=O)C1CC(c2ccccc2)=NO1 (centres unmarked) [Example 13, Methyl 3-phenyl-2-isoxazolin-5-yl(P-methyl)phosphinate]
change in vivo at 50 mg/kg (active Arthus reaction; Rattus norvegicus): -13%
pIC50 (aminopeptidase B): 3.38
LD50 at 168 h (Acute toxicity; iv): > 200 mg/kg

SMILES: COP(=O)(OC)C1CC(c2ccccc2)=NO1 (single isomer, unassigned) [Example 60a, Dimethyl (+)- and (-)-3-phenyl-2-isoxazolin-5-ylphosphonate]
Relative stimulation of macrophage activity: Exocytosis (peritoneal macrophages [2]): 88%
Relative stimulation of macrophage activity: Chemiluminescence (peritoneal macrophages [3]): 51%

SMILES: COP(=O)(OC)C1CC(c2ccccc2)=NO1 (single isomer, unassigned) [Example 60b, Dimethyl (+)- and (-)-3-phenyl-2-isoxazolin-5-ylphosphonate]
Relative stimulation of macrophage activity: Exocytosis (peritoneal macrophages [2]): 63%
Relative stimulation of macrophage activity: Chemiluminescence (peritoneal macrophages [3]): 24%

SMILES: CP(=O)(O)C1CC(c2ccccc2)=NO1 (centres unmarked) [Example 63, 3-Phenyl-2-isoxazolin-5-yl(P-methyl)phosphinic acid]
change in vivo at 50 mg/kg (active Arthus reaction; Rattus norvegicus, po, 4 h): -48%
% inhibition Proteinuria (cGvH reaction; oral dose 15 mg/kg/day): 76%
% inhibition cGvH index (cGvH reaction; oral dose 15 mg/kg/day): 54%
% inhibition Proteinuria (cGvH reaction; oral dose 30 mg/kg/day): 61%
% inhibition cGvH index (cGvH reaction; oral dose 30 mg/kg/day): 48%
LD50 at 168 h (Acute toxicity; ip): 300 to 600 mg/kg

SMILES: O=P(O)(O)C1CC(c2ccccc2)=NO1 (single isomer, unassigned; (+)) [Example 61, (+)-3-Phenyl-2-isoxazolin-5-ylphosphonic acid]
Active Arthus reaction % change (active Arthus reaction): +52%
Relative stimulation of the DTH reaction ([1]; 40 mg/kg): 108%
Leucine aminopeptidase IC50 (leucine aminopeptidase): 26 μug/ml

Leucine aminopeptidase IC50 (leucine aminopeptidase): 65 μug/ml
SMILES: O=C(C1=NOC(P(=O)(O)O)C1)c1ccccc1 (centres unmarked) [Example 53]
Relative stimulation of the DTH reaction [1]: 68%

SMILES: O=P(O)(O)C1CC(c2ccccc2)=NO1 (centres unmarked) [Example 37]
Relative stimulation of the DTH reaction ([1]; 40 mg/kg): 77%
Leucine aminopeptidase IC50 (leucine aminopeptidase): 52 μug/ml

SMILES: O=P(O)(O)C1CC(c2ccccc2)=NO1 (centres unmarked) [Example 35]
change in vivo at 35 mg/kg (active Arthus reaction; Rattus norvegicus, po, 4 h, oral dose 35 mg/kg, read-out: Active Arthus reaction % change): -16%
Relative stimulation of the DTH reaction ([1]; 40 mg/kg): 98%
Leucine aminopeptidase IC50 (leucine aminopeptidase): 57 μug/ml
LD50 at 168 h (Acute toxicity; iv): > 200 mg/kg
